The source of these data is a melting point compilation (Tetko et al.; mined from patent text by program, amines drawn as free bases though some values may be those of a salt).

Some results are limits rather than exact numbers.

One may read the melting point as the temperature, or range, at which the solid turns liquid.

As to `Cc1c(C(=O)O)cnn1-c1ccc(Cl)c(Cl)c1`, the melting point is 188 °C.

Consider `CCOC(=O)c1c(C)n(Cc2ccc3ccccc3n2)c2ccc(OCc3ccc4ccccc4n3)cc12`, for which the melting point was in the range of 162 to 163 °C.

Regarding `CN1CCN(C(=O)c2cc3c4ccccc4n(C)c3s2)CC1`, the melting point was 219 to 220 °C.

In turn, `C1=CC2(c3ccccc3CP(Cc3ccccc3)Cc3ccccc3)OC2(CP(Cc2ccccc2)Cc2ccccc2)C2OC12` (configuration not stated) returned a melting point of 203 to 205 °C.

In turn, `c1ccc2c(c1)CSc1nnnn1-2` had a melting point of 137 °C.

`CCCc1c(OCC#CCCCC(=O)O)ccc(C(C)=O)c1O` showed a melting point of 84 to 86 °C.

`COc1cc(C)c(C2=C(C)CN(O)C=C2C)c(C)c1` gave a melting point of 194 to 195 °C.

Compound `CCCCCCCCCCNC(=O)CCCCC(=O)OO` had a melting point of 77 to 85 °C.

For the compound `Cc1c(C(=O)c2cccc(C(F)(F)F)c2)oc2c(Br)cccc12`, the melting point was 97 to 98 °C.

On to `Cn1cc(C(=O)NCc2ccc(Cl)cc2)c(=O)c2cc(CN3CCOCC3)cc(C#CCF)c21`, for which the melting point lay in the range of 189 to 191 °C.

`O=S1(=O)N=C(c2ccc(Cl)cc2)N(c2cc(Cl)cc(Cl)c2)c2ccncc21` returned a melting point of 284 to 286 °C.

In the case of `CN(C)Cc1ccc(C(=O)Nc2nc(-c3ccco3)c(C(=O)C3CCOCC3)s2)cc1`, the melting point was 109 to 112 °C.

Consider `C#Cc1cc(C)cc(C)c1-c1c(O)c(C)nn(C)c1=O`, for which the melting point lay within 179 to 181 °C.

For `CC(C)(C)OC(=O)NC1C(=O)N2C(C(=O)OCc3ccc([N+](=O)[O-])cc3)=C(S)SCC12` (mixture of isomers), the melting point worked out at 170 °C.

On to `CCc1nc2c(-c3cc4ccoc4cc3C)ncnc2n1C(C1CC1)C1CC1`, for which the melting point fell in the range of 139 to 141 °C.

Compound `CC(=O)Nc1nc(CCc2ccc(CCBr)cc2)cs1` showed a melting point of 153 to 154 °C.

As for `CCN(CC)c1ccc2c(c1)[C@@H]1[C@H](C2)c2ccc(N(CC)CC)cc2N1C(C)=O` (relative stereo), the melting point was 137 to 138 °C.

Turning to `CN(C1c2cc(O)ccc2OC(C)(C)C1O)S(C)(=O)=O` (configuration not stated), the melting point was in the range of 204 to 206 °C.

On to `CCCCCCCCOc1cc(-c2cccc([N+](=O)[O-])c2)c(OCC(=O)O)c(-c2cccc([N+](=O)[O-])c2)c1`, for which the melting point fell in the range of 129 to 132 °C.

`CCOC(=O)C(O)C1OC(n2cnc3c(N)ncnc32)C(O)C1O` (configuration not stated) displayed a melting point of 265 to 268 °C.

The compound `CS(=O)(=O)Nc1cc(C(c2cc(F)ccc2F)S(=O)(=O)c2ccc(F)c(F)c2)c(Cl)cn1` (configuration not stated) came in with a melting point of 118 to 120 °C.

`Cc1cccc2c1SC(C(F)(F)F)C(C(=O)O)=C2` (configuration not stated) showed a melting point of 224 to 225 °C.

Compound `Nc1ccc(C(c2ccccc2)(c2ccc(N)cc2)C(F)(F)F)cc1` yielded a melting point of 217 to 218 °C.

Consider `O=C1CC[C@@H](CO)N1Cc1ccccc1`, for which the melting point fell in the range of 82 to 84 °C.

`COC(OC)c1cc(=O)c2ccccc2o1`: the melting point was in the range of 64 to 68 °C.

On to `O=C1COc2cc(SCc3ccc(O)cc3)ccc2N1`, for which the melting point lay within 207 to 209 °C.

In turn, `CCOC(=O)CCC(=O)c1ccc(CCNS(=O)(=O)c2cccc(C(F)(F)F)c2)cc1` showed a melting point of 83 to 85 °C.

`CCCc1cccc(N(CC(=O)OC)NC(=O)NC)c1` registered a melting point of 76 to 77 °C.

`O=C(NCc1ccc(Cl)cc1)c1cnc2cc(Cl)ccc2c1O`: the melting point was in the range of 237 to 239 °C.

Compound `CCC12CCC3C4CCCC=C4CCC3C1CCC2=O` (configuration not stated) came in with a melting point of 101 to 102 °C.

`ClCCCn1c2ccccc2c2cc(-c3nc(-c4ccccc4)no3)ncc21` came in with a melting point of 192 to 195 °C.

Take `COc1ccc2c(c1C)CCc1ccc(-c3cccnc3)cc1C21N=C(N)N(C)C1=O` (configuration not stated): the melting point lay within 235 to 239 °C.

The compound `O=c1c(CCCc2ccncc2)cc2cccnc2n1-c1cccc([N+](=O)[O-])c1` came in with a melting point of 209 to 210 °C.

Regarding `COc1ccc(Nc2nc(NC3CCCCCC3)nc(Oc3ccc(C=O)cc3)n2)cc1Cl`, the melting point lay in the range of 218 to 220 °C.

The compound `C=C1CN(S(=O)(=O)c2ccc(C)cc2)CCCN(Cc2ccccc2)CCCN(S(=O)(=O)c2ccc(C)cc2)C1` yielded a melting point of 156 to 158 °C.

Turning to `O=C(Nc1ccc(CCl)cc1)C1=Cc2cc(-c3ccccc3)ccc2CC1`, the melting point was 176 to 177 °C.

In turn, `CCOC(=O)c1ccc(N=C(Nc2ccc(C(=O)OCC)cc2)c2ccc(C(C)(C)C)cc2)cc1` yielded a melting point of 212 to 219 °C.

Compound `CC(=O)OCC1OC(c2ccc(F)c(Cc3cccs3)c2)C(OC(C)=O)C(OC(C)=O)C1OC(C)=O` (configuration not stated) returned a melting point of 119 to 121 °C.

Consider `O=C(O)C(CC1CCCC1)c1ccc(S(=O)(=O)C(F)(F)F)cc1` (configuration not stated), for which the melting point is 143 to 145 °C.

As to `Cc1nn(-c2ccc(NC=C3C(=O)NC(=O)c4ccc(Br)cc43)cc2)c(C)c1Cl`, the melting point fell in the range of 290 to 291 °C.

Regarding `CNC(=NCCSCc1[nH]cnc1C)P(=O)(O)OC`, the melting point fell in the range of 170 to 171 °C.

`COC(=O)CCCCCNC(=O)c1csc(NC(=O)NCc2ccccc2)n1` returned a melting point of 140 °C.

For the compound `CN(C)C1CCc2oc3ccc(NC(=O)c4ccc(F)cc4)cc3c2C1` (configuration not stated), the melting point fell in the range of 137 to 138 °C.

The compound `COc1cc2ncc(C#N)c(Nc3cccc(CO)c3)c2cc1OC` came in with a melting point of 250 to 255 °C.

In turn, `Cc1cnc2sc(S(=O)(=O)Cc3ccccc3)nn2c1=O` registered a melting point of 171 to 173 °C.

`CC(C)NS(=O)(=O)Cc1ccc([N+](=O)[O-])cc1` yielded a melting point of 146 to 147 °C.

For `CN(C)C(=S)SC(C[N+](=O)[O-])c1ccc(Cl)s1` (configuration not stated), the melting point lay within 76 to 77 °C.

The compound `CCOC(=O)c1cc2cc(N)ccc2nn1` displayed a melting point of 204 to 206 °C.

`CCCNC1=NS(=O)(=O)c2c(sc(C)c2C#N)N1` displayed a melting point of 293 to 298 °C.

`O=c1cc(-c2cccc(Cl)c2)c2cc(Br)ccc2[nH]1` yielded a melting point of 105 °C.

In turn, `CC(=O)c1c(F)c(F)c(OCCOc2ccc3ccccc3c2)c(F)c1F` had a melting point of 114 to 115 °C.

In the case of `CN1CCC(c2[nH]c(=O)c3ccccc3c2-c2ccc(F)cc2)CC1`, the melting point is 269 to 271 °C.

Compound `CN1C(=O)[C@H](NC(=O)/C=C/c2c(Cl)cccc2Cl)N=C(c2ccccc2)c2ccccc21` yielded a melting point of 121 to 124 °C.

`NC(=S)C(F)(F)C[C@H]1CN(c2ccc(C3C=CS(=O)(=O)CC3)cc2)C(=O)O1` (some centres not stated) gave a melting point of 139 to 140 °C.

The compound `CCN(CC)C(=O)c1cc2sccc2c(-c2ccccc2Cl)n1` showed a melting point of 119 °C.

Compound `Nc1cc(NC(=O)c2cc3cc(F)ccc3n2Cc2cccc(F)c2)ccn1` had a melting point of 217 to 218 °C.

`CC(C)(C)OC(=O)NC(=O)C(c1ccccc1)c1ccccc1` gave a melting point of 160 to 162 °C.

Compound `CCOC(=O)c1cc(-c2ccccc2)n(-c2cccc(C)c2)c1C` yielded a melting point of 103 to 104 °C.

Compound `Cc1oc(-c2ccccc2)nc1COc1ccccc1CCl` came in with a melting point of 103 to 104 °C.

Turning to `CCc1ccccc1NC=C1C(=O)N(c2ccccn2)N=C1C`, the melting point amounted to 183 °C.

In the case of `CN(C)Cc1ccc(-c2csc(NC(=N)N)n2)o1`, the melting point was more than 200 °C.

On to `O=C1CN2Cc3cc(OCCCCCCO)ccc3N=C2N1`, for which the melting point lay in the range of 236 to 237 °C.

Turning to `CCOC(=O)CCCCCCCCOC1OC(CO)C(O)C(O)C1NC(C)=O` (configuration not stated), the melting point amounted to 112 °C.

As for `CN1CCN(C(=O)c2ccc3cc(-c4csc(N(C)S(=O)(=O)c5ccccc5)n4)c(=O)[nH]c3c2)CC1`, the melting point is 242 to 247 °C.

In turn, `CCc1cccc(CC)c1NC(=O)NCC(c1ccccc1)c1ccccc1` yielded a melting point of 200 to 201 °C.

The compound `Cc1cc(NS(=O)(=O)c2ccccc2)cnc1CCCC#N` had a melting point of 119 to 120 °C.

Compound `CC(C)(C)c1cc(C(C)(C)C)c2oc(-c3cccc([N+](=O)[O-])c3O)nc2c1` gave a melting point of 148 to 150 °C.

`O=C(c1ccccc1)N1C=CC(c2c(-c3ccc(F)cc3)nc3n2CCS3)C=C1` showed a melting point of 188 to 189 °C.

In the case of `Cc1oc(-c2ccccc2)nc1COc1ccc(CCC2OC(=O)NC2=O)cc1` (configuration not stated), the melting point was in the range of 158 to 159 °C.

`COc1ccc2nc(-n3nc(CCCO)cc3-c3ccc(Cl)cc3)sc2c1` registered a melting point of 123 to 125 °C.

In turn, `COC(=O)c1ccc(Cc2cn(C/C=C/c3ccc4ccc(Cl)cc4n3)c3ccc([N+](=O)[O-])cc23)c(OC)c1` gave a melting point of 158 to 160 °C.

Consider `CCOC(=O)C1Cc2ccc(Cl)cc2NC1=O` (configuration not stated), for which the melting point was in the range of 182 to 184 °C.

On to `Cc1nc(-c2ccc(C(F)(F)F)cc2)sc1Sc1ccc(Cc2nn[nH]n2)cc1`, for which the melting point was determined as 177 °C.

As to `O=C(CNC(=O)C(Cc1ccc(OCc2ccccc2)cc1)NC(=O)OCc1ccccc1)Nc1n[nH]c(=S)s1` (configuration not stated), the melting point fell in the range of 201 to 202 °C.

`O=C(C(=O)c1ccc(C(F)(F)F)cc1)c1ccncc1` yielded a melting point of 70 to 72 °C.

`COc1cc(Cc2cnc(N)nc2N)cc2c1OC(C)(C)C=C2c1cccc([N+](=O)[O-])c1` yielded a melting point of 253 to 254 °C.

Take `COCOc1cccc2c(=O)[nH]c(CCCCN(C)C)cc12`: the melting point lay within 109 to 111 °C.

For `O=C(O)c1ccc(OCCNC(=O)C2Cc3ccccc3N2S(=O)(=O)c2ccc(-c3ccc(F)cc3OC(F)F)cc2)cc1` (configuration not stated), the melting point was 70 °C.

In the case of `Cc1cc(C)c(Cc2ccc(C(C)C)cc2)c(OCC(=O)O)c1`, the melting point is 104 to 105 °C.

The compound `Nc1ncc(-c2cccc(Cl)c2Cl)nc1C(=O)Nc1cccnc1` displayed a melting point of 239 to 241 °C.

On to `O=C(NCCc1ccc(O)c(F)c1)OCc1ccccc1`, for which the melting point was in the range of 89 to 90 °C.

With `CCNC(=O)N(Cc1ccc(Cl)cc1)C1CC2CCC1C2` (configuration not stated), the melting point lay within 132 to 133 °C.

In turn, `COC(=O)C(c1ccccc1)c1cn[nH]c1` (racemic) displayed a melting point of 100 to 103 °C.

Regarding `COc1cc2c(cc1OCc1ccccc1)CCN(Cc1cccc(O)c1)C2`, the melting point was in the range of 78 to 79 °C.

In the case of `O=C(N1CC1)C(F)(F)C(O)(Cn1cncn1)c1ccc(F)cc1F` (configuration not stated), the melting point lay within 87.5 to 88 °C.

On to `CC1COc2cccc([N+](=O)[O-])c2N1` (configuration not stated), for which the melting point came to 60 °C.

The compound `CCCN1CCc2c(cccc2NC(C)=O)C1` had a melting point of 123 °C.
